“Also recorded” adds a separate entry of the source. Read-outs that look alike come from different tables or passages of the source.
How the values were obtained:
45 different kinases = assay: Kinase selectivity from screening over 45 different kinases; type: biochemical
Protocol: (§1) Kinase screening was performed using a “HotSpot” assay platform commercially available from Reaction Biology Corporation. For this kinase screening, reaction buffers were based on 20 mM Hepes (pH 7.5), 10 mM MgCl2, 1 mM EGTA, 0.02% Brij35, 0.02 mg/mL BSA, 0.1 mM Na3VO4, 2 mM DTT, and 1% DMSO, with supplementary factors necessary for respective kinase reactions added thereto. In each enzyme reaction, […] of each kinase was used together with a fresh reaction buffer and appropriate supplementary factors. A solution of each compound in DMSO was added in a suitable concentration to the reaction buffer. Kinase reaction started with the introduction of […] (specific activity […]) and continued for 2 hours at room temperature.
1) Screening of Compounds Over 45 Different Kinases
Each compound was tested twice at a single dose concentration of 10 μM. […] The reaction was performed with 10 μM ATP.

ROS kinase [1] = target: T1, ROS kinase (Homo sapiens, UniProt P08922); assay: ROS kinase screening (HotSpot, IC50 mode); type: biochemical; design: purchased Reaction Biology Corporation; settings: 10-dose IC50 mode starting from 20 μM; 10 μM ATP; read-out: Inhibitory Activity against ROS (IC50)
T1 sequence (P08922 28-2347): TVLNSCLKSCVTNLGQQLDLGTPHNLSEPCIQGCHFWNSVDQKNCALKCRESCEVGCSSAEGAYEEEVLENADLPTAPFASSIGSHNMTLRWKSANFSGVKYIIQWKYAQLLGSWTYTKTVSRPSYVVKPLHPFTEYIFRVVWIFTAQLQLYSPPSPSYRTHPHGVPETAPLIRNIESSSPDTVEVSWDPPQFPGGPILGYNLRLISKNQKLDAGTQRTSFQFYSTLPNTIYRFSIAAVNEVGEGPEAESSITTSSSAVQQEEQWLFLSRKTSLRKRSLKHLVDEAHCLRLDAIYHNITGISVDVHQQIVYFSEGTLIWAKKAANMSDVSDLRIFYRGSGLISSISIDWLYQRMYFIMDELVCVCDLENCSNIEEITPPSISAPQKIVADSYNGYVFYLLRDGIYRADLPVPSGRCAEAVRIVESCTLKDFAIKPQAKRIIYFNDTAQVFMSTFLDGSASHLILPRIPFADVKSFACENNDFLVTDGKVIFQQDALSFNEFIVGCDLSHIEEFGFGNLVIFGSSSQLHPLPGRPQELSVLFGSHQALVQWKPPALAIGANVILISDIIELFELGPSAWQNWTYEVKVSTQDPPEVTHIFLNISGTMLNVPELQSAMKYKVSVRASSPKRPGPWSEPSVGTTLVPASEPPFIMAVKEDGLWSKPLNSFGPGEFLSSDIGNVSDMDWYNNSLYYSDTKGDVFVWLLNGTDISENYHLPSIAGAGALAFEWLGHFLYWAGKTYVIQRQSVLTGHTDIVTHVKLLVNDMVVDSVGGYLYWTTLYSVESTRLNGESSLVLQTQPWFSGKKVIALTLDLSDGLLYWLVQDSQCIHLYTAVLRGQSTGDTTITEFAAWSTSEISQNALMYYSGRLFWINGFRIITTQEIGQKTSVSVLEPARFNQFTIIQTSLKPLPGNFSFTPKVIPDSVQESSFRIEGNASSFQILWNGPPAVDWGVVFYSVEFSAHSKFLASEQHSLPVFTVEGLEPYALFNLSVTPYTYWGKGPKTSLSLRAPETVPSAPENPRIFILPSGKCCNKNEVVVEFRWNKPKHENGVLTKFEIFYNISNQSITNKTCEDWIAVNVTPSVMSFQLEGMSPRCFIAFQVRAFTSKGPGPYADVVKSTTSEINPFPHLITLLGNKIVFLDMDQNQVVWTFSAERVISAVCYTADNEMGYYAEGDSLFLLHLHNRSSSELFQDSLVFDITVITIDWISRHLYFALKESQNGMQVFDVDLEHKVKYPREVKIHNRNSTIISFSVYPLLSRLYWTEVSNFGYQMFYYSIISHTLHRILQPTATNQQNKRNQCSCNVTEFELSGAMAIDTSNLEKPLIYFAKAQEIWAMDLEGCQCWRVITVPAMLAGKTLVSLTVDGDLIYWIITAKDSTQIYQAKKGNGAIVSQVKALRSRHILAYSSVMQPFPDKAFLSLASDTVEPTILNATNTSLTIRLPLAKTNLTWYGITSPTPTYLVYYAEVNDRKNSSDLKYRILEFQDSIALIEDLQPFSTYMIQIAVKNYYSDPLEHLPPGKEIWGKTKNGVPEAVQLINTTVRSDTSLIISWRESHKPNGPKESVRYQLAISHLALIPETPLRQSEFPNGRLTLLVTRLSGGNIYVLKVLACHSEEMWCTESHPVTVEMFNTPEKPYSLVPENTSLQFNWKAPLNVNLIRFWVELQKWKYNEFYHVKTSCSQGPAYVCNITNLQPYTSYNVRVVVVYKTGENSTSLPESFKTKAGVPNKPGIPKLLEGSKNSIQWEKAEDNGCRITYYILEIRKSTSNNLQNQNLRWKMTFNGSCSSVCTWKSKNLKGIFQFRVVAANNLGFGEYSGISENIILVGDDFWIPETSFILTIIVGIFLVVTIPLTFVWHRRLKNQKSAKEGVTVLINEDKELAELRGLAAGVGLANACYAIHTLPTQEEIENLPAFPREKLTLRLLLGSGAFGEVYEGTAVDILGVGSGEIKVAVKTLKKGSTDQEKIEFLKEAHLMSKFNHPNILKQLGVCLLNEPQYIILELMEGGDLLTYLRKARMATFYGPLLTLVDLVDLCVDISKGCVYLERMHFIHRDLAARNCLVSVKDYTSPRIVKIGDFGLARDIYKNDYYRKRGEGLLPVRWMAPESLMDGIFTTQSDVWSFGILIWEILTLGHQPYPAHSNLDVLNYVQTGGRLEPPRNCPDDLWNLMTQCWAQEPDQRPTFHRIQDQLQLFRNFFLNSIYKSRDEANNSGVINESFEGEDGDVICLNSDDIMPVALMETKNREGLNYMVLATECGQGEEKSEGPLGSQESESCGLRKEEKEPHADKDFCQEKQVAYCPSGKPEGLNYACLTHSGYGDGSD
Protocol: as §1
The reaction was performed with 10 μM ATP.

ROS kinase [2] = target: T1, ROS kinase; design: literature Reaction Biology Corporation; settings: Data from Reaction Biology corporation (website); read-out: Inhibitory Activity against ROS (IC50); cited from earlier work

SMILES: Cc1cc(O)cc(-c2nn(CC#N)cc2-c2ccnc(-c3cccnc3)c2)c1 [Example 44, [3-(3-hydroxy-5-methylphenyl)-4-(2-(pyridin-3-yl)pyridin-4-yl)-pyrazol-1-yl]acetonitrile]
- Notes (selectivity for ROS) (45 different kinases): ROS selectivity; also recorded: Selective for ROS
- IC50 (ROS kinase [1]): 0.209 µM

SMILES: COc1cc2ncnc(Nc3cccc(Cl)c3)c2cc1OC [AG1478]
- IC50 (ROS kinase [2]): 13.6 µM
